# Test results as given in US20060281767A1, “Triazoloypyrimidines” (BAYER CROPSCIENCE AKTIENGESELLSCHAFT, priority 2003, published 2006).
# Test system: Venturia inaequalis
# Experiment: Venturia test (apple)/protective
# Assay type: in vivo
# Settings: protective spray, assessment 10 days after inoculation, 0% = control, 100% = no attack
# Source text: Venturia Test (apple)/protective • Solvent: 24.5 parts by weight of acetone • 24.5 parts by weight of dimethylacetamide • Emulsifier: 1 part by weight of alkyl-aryl-polyglycolether One part by weight of active substance is mixed with the specified quantities of solvent and emulsifier and the concentrate diluted with water to the desired concentration to prepare a suitable active substance preparation. To test the protective efficiency, young plants are sprayed with the active substance preparation in the specified amount. After drying the spray coating, the plants are inoculated with an aqueous conodia suspension of the apple scab pathogen Venturia inaequalis and are then left for 1 day at about 20° C. and 100% relative humidity in an incubation cabinet. The plants are then placed in a greenhouse at about 21° C. and a relative humidity of about 90%. The assessment is made 10 days after the inoculation. In this situation 0% means an efficiency corresponding to that of the control whereas an efficiency of 100% means that no attack is observed.
row,SMILES,efficiency
1,CC(C)C(C)Sc1c(-c2ncncc2Cl)c(Cl)nc2ncnn12 (stereo not drawn) [Example 2],> 90%

# Test system: not listed separately
# Experiment: LogP determination by HPLC (EEC-Directive 79/831 Annex V. A8)
# Assay type: physicochemical
# Settings: HPLC with acetonitrile/0.1% aqueous phosphoric acid gradient, gradient method
row,SMILES,chromatographic logP
1,"CC(Oc1c(-c2ncncc2Cl)c(Cl)nc2ncnn12)C(F)(F)F (stereo not drawn) [Example 1, 5-chloro-6-(5-chloro-pyrimidin4-yl)-7-(2,2,2-trifluoro-isopropoxy)[1,2,4]triazolo[1,5-a]pyrimidine]",2.43
2,CC(C)C(C)Sc1c(-c2ncncc2Cl)c(Cl)nc2ncnn12 (stereo not drawn) [Example 2],3.07
3,"FC(F)(F)c1cccnc1-c1c(Cl)nc2ncnn2c1Cl [Example 5, 5,7-dichloro-6-(3-trifluoromethyl-pyridin-2-yl)-[1,2,4]triazolo[1,5-a]pyrimidine]",1.97
4,"Clc1cncnc1-c1c(Cl)nc2ncnn2c1Cl [Example 6, 5,7-dichloro-6-(5-chloro-4-pyrimidinyl)[1,2,4]triazolo[1,5-a]pyrimidine]",1.43
5,"Clc1ncsc1-c1c(Cl)nc2nc(C3CC3)nn2c1Cl [Example 9, 5,7-dichloro-2-cyclopropyl-6-(4-chloro-thiazol-5-yl)-[1,2,4]-triazolo[1,5-a]pyrimidine]",2.46
6,"Oc1nc2ncnn2c(O)c1-c1ncccc1C(F)(F)F [Example 10, 6-(3-trifluoromethyl-pyridin-2-yl)-[1,2,4]triazolo[1,5-a]pyrimidin-5,7-diole]",-0.23
7,"Oc1nc2ncnn2c(O)c1-c1ncncc1Cl [Example 11, 6-(5-chloro-4-pyrimidinyl)[1,2,4]triazolo[1,5-a]pyrimidin-5,7-diole]",-0.23
8,"Oc1nc2nc(C3CC3)nn2c(O)c1-c1scnc1Cl [Example 12, 2-cyclopropyl-6-(4-chloro-thiazol-5-yl)-[1,2,4]triazolo[1,5-a]pyrimidin-5,7-diol]",0.1
9,"COC(=O)C(C(=O)OC)c1ncccc1C(F)(F)F [Example 13, 2-[(3-trifluoromethyl)-pyridin-2-yl]-malonic acid dimethylester]",2.05
10,"COC(=O)C(C(=O)OC)c1ncncc1Cl [Example 14, 2-(5-chloro-pyrimidin-4-yl)-malonic acid dimethylester]",1.33
11,"Clc1cncnc1Cl [Example 15, 4,5-dichloropyrimidine]",1.35
